From patent US9796714B2, “Calcium channel agonists” (University of Pittsburgh—Of the Commonwealth System of …, priority 2013, dated 2017)

Legend:
[1] = target: T1, myosin light-chain kinase (MLCK(h)) (Homo sapiens, UniProt Q9H1R3); experiment: Kinase inhibitory activity (EMD Millipore KinaseProfiler), MLCK; assay type: biochemical; conditions: 20 μM highest concentration used; read-out: MLCK EC50/IC50 affinities
T1 construct: purchased EMD Millipore KinaseProfiler service (Millipore UK Ltd.)
Procedure: Kinase inhibitory activity. Kinase inhibitory activities were determined using the EMD Millipore KinaseProfiler™ service (Millipore UK Ltd.). Each compound's kinase inhibitory activity was tested at three different concentrations (0.2 μM, 2 μM, and 20 μM) against five different kinases: Cdk1 cyclinB(h), cdk2 cyclinA(h), cdk5 p35(h), mitogen-activated protein kinase (MAPK1(h)) and myosin light-chain kinase (MLCK(h)).
Statistical Analysis. […] For the dose-response analyses on Ca^2+ current, each concentration of the four different compounds was tested in 3-6 cells. […] All EC50 and IC50 values and their respective errors were determined by performing 100 iterations of a logistic function curve fit.

LEMS model NMJs = experiment: Intracellular recordings at LEMS model mouse NMJs, 13x, DAP and combination (Example 4); conditions: 50 μM 13x, […] DAP, or both
Procedure: To test this, intracellular microelectrode recordings were performed on ex vivo nerve-muscle preparations taken from LEMS passive-transfer model mice and measured the magnitude of acetylcholine released at the neuromuscular junction. The most sensitive method of quantifying the magnitude of acetylcholine released is to determine the quantal content. Quantal content is defined as the number of neurotransmitter-containing synaptic vesicles that are released from the nerve terminal during a single action potential stimulus. This value was determined by first measuring the area under the average action potential-evoked endplate potential (EPP) and then dividing this value by the area under the average single vesicle release event (miniature endplate potential; mEPP). This value could be compared between experimental groups to provide an accurate measurement of changes in the magnitude of acetylcholine released during a single action potential. Using this approach, the quantal content among five experimental conditions was compared: control NMJs, LEMS NMJs, LEMS NMJs exposed to 50 μM 13x, LEMS NMJs exposed to 1.5 μM DAP, and LEMS NMJs exposed to 50 μM 13x+1.5 μM DAP (FIG. 10). […]; EPP amplitude=10.18±0.62 mV) as compared with control serum treated mouse NMJs (QC=107.5±3.6; EPP amplitude=34.62±1.37 mV; Tarr et al., 2013). […] In fact, this 13x-mediated enhancement was very similar to what was observed after exposure of LEMS model NMJs to 1.5 μM DAP (QC=49.0±4.4; EPP amplitude=17.94±1.381 mV). […]; EPP amplitude=34.62±1.37 mV; Tarr et al., 2013). […] In summary, while either 13x or DAP alone caused about an 80% increase in transmitter release from LEMS model NMJs, the combination of 13x plus DAP caused about a 300% increase in transmitter release.

CCCn1cnc2c(NCc3ccc(C)s3)nc(N[C@H](CC)CO)nc21 [Compound 13x, (2R)-2-[(6-{[(5-Methylthiophen-2-yl)methyl]amino}-9-propyl-9H-purin-2-yl)amino]butan-1-ol]
IC50 [1]: > 20 µM | 10th EPP of 50 Hz train as % of the first EPP (short-term plasticity) (LEMS model NMJs): ~123% | increase in transmitter release from LEMS model NMJs (LEMS model NMJs): ~80% | EPP amplitude (LEMS model NMJs; LEMS model NMJs): 13.75±1.244 mV | quantal content (QC, area of EPP divided by area of mEPP) (LEMS model NMJs; LEMS model NMJs, mean±s.e.m.): 48.4±2.7
